Results taken from PubChem BioAssay (NCI).
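Protocol summary: plate cells (96-well), add compound at 5 concentrations, incubate 48 h, interpolate endpoints linearly. At the GI50, growth is halved. At the TGI there is no net growth.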

How the values were obtained:
Test in all cases: growth of human tumour cells (NCI), 48 h
K-562 leukemia = test system: K-562 leukemia
HL-60(TB) leukemia = test system: HL-60(TB) leukemia
RPMI-8226 leukemia = test system: RPMI-8226 leukemia
ACHN renal = test system: ACHN renal
HS 578T breast = test system: HS 578T breast
SW-620 colon = test system: SW-620 colon
NCI-H460 lung = test system: NCI-H460 lung
M14 melanoma = test system: M14 melanoma
SNB-19 CNS = test system: SNB-19 CNS
HOP-92 NSCLC = test system: HOP-92 NSCLC
786-0 renal = test system: 786-0 renal
CAKI-1 renal = test system: CAKI-1 renal
OVCAR-3 ovarian = test system: OVCAR-3 ovarian
U251 CNS = test system: U251 CNS
UACC-257 melanoma = test system: UACC-257 melanoma
MOLT-4 leukemia = test system: MOLT-4 leukemia
IGROV1 ovarian = test system: IGROV1 ovarian
SK-OV-3 ovarian = test system: SK-OV-3 ovarian
OVCAR-4 ovarian = test system: OVCAR-4 ovarian
HCC-2998 colon = test system: HCC-2998 colon
HCT-116 colon = test system: HCT-116 colon
COLO 205 colon = test system: COLO 205 colon
HT29 colon = test system: HT29 colon
SF-295 CNS = test system: SF-295 CNS
MDA-MB-231 breast = test system: MDA-MB-231 breast
UO-31 renal = test system: UO-31 renal
A549 NSCLC = test system: A549 NSCLC
UACC-62 melanoma = test system: UACC-62 melanoma
SF-268 CNS = test system: SF-268 CNS
NCI-H23 lung = test system: NCI-H23 lung
MDA-MB-468 breast = test system: MDA-MB-468 breast
CCRF-CEM leukemia = test system: CCRF-CEM leukemia
SNB-75 CNS = test system: SNB-75 CNS
HOP-62 NSCLC = test system: HOP-62 NSCLC
SN12C renal = test system: SN12C renal
SK-MEL-2 melanoma = test system: SK-MEL-2 melanoma
DU-145 prostate = test system: DU-145 prostate
MCF7 breast = test system: MCF7 breast
HCT-15 colon = test system: HCT-15 colon
TK-10 renal = test system: TK-10 renal
BT-549 breast = test system: BT-549 breast
SF-539 CNS = test system: SF-539 CNS
PC-3 prostate = test system: PC-3 prostate
EKVX NSCLC = test system: EKVX NSCLC
NCI-H226 lung = test system: NCI-H226 lung
NCI-H522 lung = test system: NCI-H522 lung
OVCAR-5 ovarian = test system: OVCAR-5 ovarian
MALME-3M melanoma = test system: MALME-3M melanoma
SK-MEL-5 melanoma = test system: SK-MEL-5 melanoma
OVCAR-8 ovarian = test system: OVCAR-8 ovarian
A498 renal = test system: A498 renal
LOX IMVI melanoma = test system: LOX IMVI melanoma
T-47D breast = test system: T-47D breast
RXF 393 renal = test system: RXF 393 renal
MDA-MB-435 = test system: MDA-MB-435
SR leukemia = test system: SR leukemia
SK-MEL-28 melanoma = test system: SK-MEL-28 melanoma
NCI/ADR-RES ovarian = test system: NCI/ADR-RES ovarian
KM12 colon = test system: KM12 colon

For `Cc1noc2c(Cc3ccccc3)nn(CC(=O)N/N=C/c3ccc(F)cc3)c(=O)c12`, the GI50 (K-562 leukemia) was 84.4 µM, the TGI (K-562 leukemia) was > 100 µM and the GI50 (HL-60(TB) leukemia) was > 100 µM. For the same compound, the TGI (HL-60(TB) leukemia) was > 100 µM, the GI50 (RPMI-8226 leukemia) was > 100 µM and the TGI (RPMI-8226 leukemia) was > 100 µM. The GI50 (ACHN renal) was 4.88 µM, the TGI (ACHN renal) was 24.1 µM and the GI50 (HS 578T breast) was 4.65 µM. For the same compound, the TGI (HS 578T breast) was 46.7 µM, the GI50 (SW-620 colon) was > 100 µM and the TGI (SW-620 colon) was > 100 µM. For the same compound, the GI50 (NCI-H460 lung) was 9.78 µM, the TGI (NCI-H460 lung) was > 100 µM and the GI50 (M14 melanoma) was 26.1 µM. For the same compound, the TGI (M14 melanoma) was > 100 µM, the GI50 (SNB-19 CNS) was 6.74 µM and the TGI (SNB-19 CNS) was 24.2 µM. For the same compound, the GI50 (HOP-92 NSCLC) was 9.56 µM, the TGI (HOP-92 NSCLC) was 27.8 µM and the GI50 (786-0 renal) was 3.13 µM. It also gave a TGI (786-0 renal) of 12.4 µM, a GI50 (CAKI-1 renal) of 6.13 µM and a TGI (CAKI-1 renal) of 32.1 µM. The GI50 (OVCAR-3 ovarian) was 87.1 µM, the TGI (OVCAR-3 ovarian) was > 100 µM and the GI50 (U251 CNS) was 18.3 µM. For the same compound, the TGI (U251 CNS) was > 100 µM, the GI50 (UACC-257 melanoma) was 78.1 µM and the TGI (UACC-257 melanoma) was > 100 µM. The GI50 (MOLT-4 leukemia) was > 100 µM, the TGI (MOLT-4 leukemia) was > 100 µM and the GI50 (IGROV1 ovarian) was 22.5 µM. The TGI (IGROV1 ovarian) was 54.2 µM, the GI50 (SK-OV-3 ovarian) was 4.4 µM and the TGI (SK-OV-3 ovarian) was 16 µM. For the same compound, the GI50 (OVCAR-4 ovarian) was 3.95 µM, the TGI (OVCAR-4 ovarian) was > 100 µM and the GI50 (HCC-2998 colon) was > 100 µM. The TGI (HCC-2998 colon) was > 100 µM, the GI50 (HCT-116 colon) was 5.08 µM and the TGI (HCT-116 colon) was 77.3 µM. The GI50 (COLO 205 colon) was > 100 µM, the TGI (COLO 205 colon) was > 100 µM and the GI50 (HT29 colon) was > 100 µM. The TGI (HT29 colon) was > 100 µM, the GI50 (SF-295 CNS) was 3.33 µM and the TGI (SF-295 CNS) was 17.3 µM. The GI50 (MDA-MB-231 breast) was 4.92 µM, the TGI (MDA-MB-231 breast) was 21.8 µM and the GI50 (UO-31 renal) was 18 µM. The TGI (UO-31 renal) was > 100 µM, the GI50 (A549 NSCLC) was 46.2 µM and the TGI (A549 NSCLC) was > 100 µM. For the same compound, the GI50 (UACC-62 melanoma) was 20.9 µM, the TGI (UACC-62 melanoma) was 66.8 µM and the GI50 (SF-268 CNS) was 24.6 µM. The TGI (SF-268 CNS) was > 100 µM, the GI50 (NCI-H23 lung) was 17 µM and the TGI (NCI-H23 lung) was 41.7 µM. For the same compound, the GI50 (MDA-MB-468 breast) was 16.1 µM, the TGI (MDA-MB-468 breast) was 57.8 µM and the GI50 (CCRF-CEM leukemia) was > 100 µM. For the same compound, the TGI (CCRF-CEM leukemia) was > 100 µM, the GI50 (SNB-75 CNS) was 8.25 µM and the TGI (SNB-75 CNS) was 32.2 µM. For the same compound, the GI50 (HOP-62 NSCLC) was 5.29 µM, the TGI (HOP-62 NSCLC) was 21 µM and the GI50 (SN12C renal) was > 100 µM. For the same compound, the TGI (SN12C renal) was > 100 µM, the GI50 (SK-MEL-2 melanoma) was 16.3 µM and the TGI (SK-MEL-2 melanoma) was 33.3 µM. For the same compound, the GI50 (DU-145 prostate) was > 100 µM, the TGI (DU-145 prostate) was > 100 µM and the GI50 (MCF7 breast) was 66.5 µM. The TGI (MCF7 breast) was > 100 µM, the GI50 (HCT-15 colon) was > 100 µM and the TGI (HCT-15 colon) was > 100 µM. The GI50 (TK-10 renal) was 13.6 µM, the TGI (TK-10 renal) was 36.9 µM and the GI50 (BT-549 breast) was 14.5 µM. The TGI (BT-549 breast) was 37.8 µM, the GI50 (SF-539 CNS) was 16.7 µM and the TGI (SF-539 CNS) was 37.3 µM. For the same compound, the GI50 (PC-3 prostate) was 66.1 µM, the TGI (PC-3 prostate) was > 100 µM and the GI50 (EKVX NSCLC) was > 100 µM. For the same compound, the TGI (EKVX NSCLC) was > 100 µM, the GI50 (NCI-H226 lung) was 4.12 µM and the TGI (NCI-H226 lung) was 29.3 µM. The GI50 (NCI-H522 lung) was 19.1 µM, the TGI (NCI-H522 lung) was 73.6 µM and the GI50 (OVCAR-5 ovarian) was > 100 µM. For the same compound, the TGI (OVCAR-5 ovarian) was > 100 µM, the GI50 (MALME-3M melanoma) was 8.99 µM and the TGI (MALME-3M melanoma) was 38.5 µM. The GI50 (SK-MEL-5 melanoma) was 33.2 µM, the TGI (SK-MEL-5 melanoma) was > 100 µM and the GI50 (OVCAR-8 ovarian) was 27.9 µM. The TGI (OVCAR-8 ovarian) was > 100 µM, the GI50 (A498 renal) was 11 µM and the TGI (A498 renal) was 33.7 µM. The GI50 (LOX IMVI melanoma) was 33 µM, the TGI (LOX IMVI melanoma) was > 100 µM and the GI50 (T-47D breast) was 5.62 µM. For the same compound, the TGI (T-47D breast) was > 100 µM, the GI50 (RXF 393 renal) was 5.4 µM and the TGI (RXF 393 renal) was 21.2 µM. The GI50 (MDA-MB-435) was > 100 µM, the TGI (MDA-MB-435) was > 100 µM and the GI50 (SR leukemia) was > 100 µM. For the same compound, the TGI (SR leukemia) was > 100 µM, the GI50 (SK-MEL-28 melanoma) was > 100 µM and the TGI (SK-MEL-28 melanoma) was > 100 µM. For the same compound, the GI50 (NCI/ADR-RES ovarian) was 21.3 µM, the TGI (NCI/ADR-RES ovarian) was > 100 µM and the GI50 (KM12 colon) was > 100 µM. The TGI (KM12 colon) was > 100 µM.
